Measured values as given in patent US11999732B2, “P2X3 receptor antagonists” (RECORDATI INDUSTRIA CHIMICA E FARMACEUTICA SPA, priority 2018, dated 2024).

Molecular target: T1, human P2X3 receptor (Homo sapiens, UniProt P56373)
T1 construct: expressed in transfected cells; host or cells: CHO-K1
T1 sequence (P56373 1-397): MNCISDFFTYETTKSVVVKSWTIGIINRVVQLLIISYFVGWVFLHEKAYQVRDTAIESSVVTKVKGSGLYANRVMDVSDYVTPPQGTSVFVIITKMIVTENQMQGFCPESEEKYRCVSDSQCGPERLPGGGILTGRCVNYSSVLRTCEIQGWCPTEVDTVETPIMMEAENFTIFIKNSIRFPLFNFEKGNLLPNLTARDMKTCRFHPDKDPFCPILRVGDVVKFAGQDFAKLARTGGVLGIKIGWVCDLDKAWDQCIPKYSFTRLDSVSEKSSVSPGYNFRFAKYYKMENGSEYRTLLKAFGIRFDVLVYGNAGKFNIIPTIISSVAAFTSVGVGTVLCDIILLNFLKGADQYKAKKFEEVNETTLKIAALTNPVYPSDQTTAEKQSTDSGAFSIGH
Experiment: Calcium luminescence (photoprotein) assay in CHO-K1 cells co-expressing human P2X3 receptor, α,β-Met-ATP stimulation, FLEXSTATION readout
Assay type: cell-based
Settings: Table 8; human P2X3 receptor antagonist activity, CHO-K1 cells, α,β-Met-ATP; read-out: h-P2X3 IC50
In short: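 CHO-K1 cells co-expressing human P2X3 and a Ca2+-sensitive photoprotein, loaded with coelenterazine in Tyrode's buffer (pH 7.4) for 4 h at 37 °C. Compounds injected 4 min before α,β-Met-ATP stimulation; luminescence recorded, IC50 and pseudo-Hill slope from nonlinear regression of inhibition curves.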

SMILES	IC50
Cc1ccc(Cc2nn3c(CC4CCOCC4)nnc3c3ncc(N4CCOCC4)cc23)cc1 [Example 117, 6-(4-methylbenzyl)-8-(morpholin-4-yl)-3-(tetrahydro-2H-pyran-4-ylmethyl)pyrido[2,3-d][1,2,4]triazolo[4,3-b]pyridazine]	197 nM
COCCNc1cnc2c(c1)c(Cc1cc(OC)cc(OC)c1)nn1c(CC(C)C)nnc21 [Example 118, 6-(3,5-dimethoxybenzyl)-n-(2-methoxyethyl)-3-(2-methylpropyl)pyrido[2,3-d][1,2,4]triazolo[4,3-b]pyridazin-8-amine]	1050 nM
COc1cc(Cc2nn3c(COC(C)C)nnc3c3ncc(N4CCOCC4)cc23)cc(OC)c1 [Example 119, 6-(3,5-dimethoxybenzyl)-8-(morpholin-4-yl)-3-[(propan-2-yloxy)methyl]pyrido[2,3-d][1,2,4]triazolo[4,3-b]pyridazine]	1210 nM
COc1ccc(Cc2nn3c(C(C)C)nnc3c3ncc(N4CCOCC4)cc23)cc1 [Example 122, 6-(4-methoxybenzyl)-8-(morpholin-4-yl)-3-(propan-2-yl)pyrido[2,3-d][1,2,4]triazolo[4,3-b]pyridazine]	1810 nM
COc1ccc(Cc2nn3c(C(C)(C)C)nnc3c3ncc(N4CCOCC4)cc23)cc1 [Example 123, 3-tert-butyl-6-(4-methoxybenzyl)-8-(morpholin-4-yl)pyrido[2,3-d][1,2,4]triazolo[4,3-b]pyridazine]	246 nM
COCC1CN(c2cnc3c(c2)c(Cc2ccc(OC)cc2)nn2c(CC(C)C)nnc32)C1 [Example 124, 6-(4-methoxybenzyl)-8-[3-(methoxymethyl)azetidin-1-yl]-3-(2-methylpropyl)pyrido[2,3-d][1,2,4]triazolo[4,3-b]pyridazine]	2820 nM
CC(c1nnc2c3ncc(N4CCOCC4)cc3c(Cc3ccc(Cl)cc3)nn12)C1CCOCC1 (stereo not shown) [Example 132, 6-(4-chlorobenzyl)-8-(morpholin-4-yl)-3-[1-(tetrahydro-2H-pyran-4-yl)ethyl]pyrido[2,3-d][1,2,4]triazolo[4,3-b]pyridazine]	19.1 nM

The remaining lines, values ahead:

IC50	SMILES
544 nM	C=C(C)c1nnc2c3ncc(N4CCOCC4)cc3c(Cc3cc(OC)cc(OC)c3)nn12 [Example 120, 6-(3,5-dimethoxybenzyl)-8-(morpholin-4-yl)-3-(prop-1-en-2-yl)pyrido[2,3-d][1,2,4]triazolo[4,3-b]pyridazine]
1150 nM	COCC1CN(c2cnc3c(c2)c(Cc2cc(OC)cc(OC)c2)nn2c(CC(C)C)nnc32)C1 [Example 121, 6-(3,5-dimethoxybenzyl)-8-[3-(methoxymethyl)azetidin-1-yl]-3-(2-methylpropyl)pyrido[2,3-d][1,2,4]triazolo[4,3-b]pyridazine]
538 nM	COc1ccc(Cc2nn3c(CC4CCOCC4)nnc3c3ncc(N4CCOCC4)cc23)cc1 [Example 125, 6-(4-methoxybenzyl)-8-(morpholin-4-yl)-3-(tetrahydro-2H-pyran-4-ylmethyl)pyrido[2,3-d][1,2,4]triazolo[4,3-b]pyridazine]
20.6 nM	Clc1ccc(Cc2nn3c(CC4CCOCC4)nnc3c3ncc(N4CCOCC4)cc23)cc1 [Example 126, 6-(4-chlorobenzyl)-8-(morpholin-4-yl)-3-(tetrahydro-2H-pyran-4-ylmethyl)pyrido[2,3-d][1,2,4]triazolo[4,3-b]pyridazine]
147 nM	CC(C)c1nnc2c3ncc(N4CCOCC4)cc3c(Cc3ccc(Cl)cc3)nn12 [Example 127, 6-(4-chlorobenzyl)-8-(morpholin-4-yl)-3-(propan-2-yl)pyrido[2,3-d][1,2,4]triazolo[4,3-b]pyridazine]
576 nM	COCC1CN(c2cnc3c(c2)c(Cc2ccc(Cl)cc2)nn2c(CC(C)C)nnc32)C1 [Example 128, 6-(4-chlorobenzyl)-8-[3-(methoxymethyl)azetidin-1-yl]-3-(2-methylpropyl)pyrido[2,3-d][1,2,4]triazolo[4,3-b]pyridazine]
